Calls of active or inactive are those of the source. No rule for the calls is given here.
Legend:
Assay in all cases: selectivity profile across receptors and CYP450s – biochemical, Ricerca HitProfilingScreen, CYP450, set 2, selectivity assay for S1P4 agonist project, profiling panel (AID 540332)
[1] = target: Beta-2 adrenergic receptor (Homo sapiens) (UniProt P07550); conditions: Adrenergic beta2; at 30 µM; stronger effect = higher value
[2] = system: Opiate mu (OP3, MOP); conditions: at 30 µM; stronger effect = higher value
[3] = target: Voltage-gated inwardly rectifying potassium channel KCNH2 (Homo sapiens) (UniProt Q12809); conditions: Potassium Channel hERG; at 30 µM; stronger effect = higher value
[4] = system: Sodium Channel, Site 2; conditions: at 30 µM; stronger effect = higher value
[5] = system: Adenosine A1; conditions: at 30 µM; stronger effect = higher value
[6] = target: Alpha-2A adrenergic receptor (Homo sapiens) (UniProt P08913); conditions: Adrenergic alpha2A; at 30 µM; stronger effect = higher value
[7] = system: Calcium Channel L-Type, Dihydropyridine; conditions: at 30 µM; stronger effect = higher value
[8] = system: Adrenergic alpha1B; conditions: at 30 µM; stronger effect = higher value
[9] = system: Glutamate, NMDA; conditions: Phencyclidine; at 30 µM; stronger effect = higher value
[10] = system: Adrenergic beta1; conditions: at 30 µM; stronger effect = higher value
[11] = system: Histamine H1; conditions: at 30 µM; stronger effect = higher value
[12] = system: Dopamine D2; conditions: at 30 µM; stronger effect = higher value
[13] = system: Norepinephrine Transporter (NET); conditions: at 30 µM; stronger effect = higher value
[14] = system: Nicotinic Acetylcholine; conditions: at 30 µM; stronger effect = higher value
[15] = target: 5-hydroxytryptamine receptor 2B (Homo sapiens) (UniProt P41595); conditions: Serotonin (5-Hydroxytryptamine) 5-HT2B; at 30 µM; stronger effect = higher value
[16] = system: Alpha-2A adrenergic receptor (Homo sapiens) + Histamine H1 receptor (Homo sapiens) + Mu-type opioid receptor (Homo sapiens); conditions: at 30 µM; stronger effect = higher value
[17] = system: Prostanoid EP4; conditions: at 30 µM; stronger effect = higher value
[18] = system: Cannabinoid CB1; conditions: at 30 µM; stronger effect = higher value
[19] = system: CYP450 2C19; conditions: at 30 µM; stronger effect = higher value
[20] = target: Cytochrome P450 1A2 (Homo sapiens) (UniProt P05177); conditions: CYP450 1A2; at 30 µM; stronger effect = higher value
[21] = target: Cytochrome P450 2C9 (Homo sapiens) (UniProt P11712); conditions: CYP450 2C9; at 30 µM; stronger effect = higher value
[22] = target: Muscarinic acetylcholine receptor M2 (Homo sapiens) (UniProt P08172); conditions: at 30 µM, stronger effect = higher value
[23] = system: Adrenergic alpha1A; conditions: at 30 µM; stronger effect = higher value
[24] = target: Cytochrome P450 3A4 (Homo sapiens) (UniProt P08684); conditions: CYP450 3A4; at 30 µM; stronger effect = higher value
[25] = target: Muscarinic acetylcholine receptor M3 (Homo sapiens) (UniProt P20309); conditions: at 30 µM, stronger effect = higher value
[26] = system: Sigma 1; conditions: at 30 µM; stronger effect = higher value
[27] = target: D(1A) dopamine receptor (Homo sapiens) (UniProt P21728); conditions: Dopamine D1; at 30 µM; stronger effect = higher value
[28] = target: Cytochrome P450 2D6 (Homo sapiens) (UniProt P10635); conditions: CYP450 2D6; at 30 µM; stronger effect = higher value
[29] = system: Adenosine A2A; conditions: at 30 µM; stronger effect = higher value
[30] = system: GABAA; conditions: Central, at 30 µM, stronger effect = higher value

Sequence of Cytochrome P450 3A4 (Homo sapiens) (P08684 whole entry, looked up): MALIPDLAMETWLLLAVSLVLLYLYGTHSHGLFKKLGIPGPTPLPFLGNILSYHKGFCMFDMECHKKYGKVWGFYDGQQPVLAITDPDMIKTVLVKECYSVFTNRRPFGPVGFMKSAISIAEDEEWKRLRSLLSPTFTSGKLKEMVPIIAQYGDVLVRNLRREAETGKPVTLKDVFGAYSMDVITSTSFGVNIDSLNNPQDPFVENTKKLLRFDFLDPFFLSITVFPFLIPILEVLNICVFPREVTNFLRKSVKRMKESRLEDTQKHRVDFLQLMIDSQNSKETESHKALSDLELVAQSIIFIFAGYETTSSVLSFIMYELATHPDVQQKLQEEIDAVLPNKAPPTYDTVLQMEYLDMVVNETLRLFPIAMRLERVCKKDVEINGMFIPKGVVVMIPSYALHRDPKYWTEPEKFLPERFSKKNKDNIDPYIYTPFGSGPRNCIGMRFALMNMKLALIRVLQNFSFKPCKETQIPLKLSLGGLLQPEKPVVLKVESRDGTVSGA
Sequence of Alpha-2A adrenergic receptor (Homo sapiens) (P08913 whole entry, looked up): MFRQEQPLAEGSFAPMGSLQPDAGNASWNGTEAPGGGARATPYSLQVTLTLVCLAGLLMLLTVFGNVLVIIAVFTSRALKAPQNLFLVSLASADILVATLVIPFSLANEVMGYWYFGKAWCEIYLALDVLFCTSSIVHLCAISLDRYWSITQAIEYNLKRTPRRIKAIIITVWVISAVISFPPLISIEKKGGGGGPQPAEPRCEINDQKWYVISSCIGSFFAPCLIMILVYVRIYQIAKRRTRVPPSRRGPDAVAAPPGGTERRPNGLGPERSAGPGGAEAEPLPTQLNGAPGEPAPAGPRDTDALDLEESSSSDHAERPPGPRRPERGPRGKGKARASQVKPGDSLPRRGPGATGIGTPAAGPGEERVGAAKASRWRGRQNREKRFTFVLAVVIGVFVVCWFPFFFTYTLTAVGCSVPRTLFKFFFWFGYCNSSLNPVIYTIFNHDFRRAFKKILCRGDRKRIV
Sequence of Muscarinic acetylcholine receptor M3 (Homo sapiens) (P20309 whole entry, looked up): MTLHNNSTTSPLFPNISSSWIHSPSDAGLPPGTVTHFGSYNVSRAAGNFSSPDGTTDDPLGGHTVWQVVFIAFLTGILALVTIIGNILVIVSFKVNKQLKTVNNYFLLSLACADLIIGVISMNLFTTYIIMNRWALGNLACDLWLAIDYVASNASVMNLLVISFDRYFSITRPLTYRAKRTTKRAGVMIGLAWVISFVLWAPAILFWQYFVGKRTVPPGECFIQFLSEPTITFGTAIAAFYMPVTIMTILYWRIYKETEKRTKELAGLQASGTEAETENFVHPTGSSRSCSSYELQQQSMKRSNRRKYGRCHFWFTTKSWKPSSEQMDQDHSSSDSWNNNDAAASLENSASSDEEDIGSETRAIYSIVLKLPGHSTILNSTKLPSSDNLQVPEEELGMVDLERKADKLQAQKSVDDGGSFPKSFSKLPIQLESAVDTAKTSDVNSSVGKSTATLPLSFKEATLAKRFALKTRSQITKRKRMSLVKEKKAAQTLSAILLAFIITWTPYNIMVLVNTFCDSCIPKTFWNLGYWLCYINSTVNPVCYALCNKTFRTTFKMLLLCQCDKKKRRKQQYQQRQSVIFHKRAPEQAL
Sequence of Muscarinic acetylcholine receptor M2 (Homo sapiens) (P08172 whole entry, looked up): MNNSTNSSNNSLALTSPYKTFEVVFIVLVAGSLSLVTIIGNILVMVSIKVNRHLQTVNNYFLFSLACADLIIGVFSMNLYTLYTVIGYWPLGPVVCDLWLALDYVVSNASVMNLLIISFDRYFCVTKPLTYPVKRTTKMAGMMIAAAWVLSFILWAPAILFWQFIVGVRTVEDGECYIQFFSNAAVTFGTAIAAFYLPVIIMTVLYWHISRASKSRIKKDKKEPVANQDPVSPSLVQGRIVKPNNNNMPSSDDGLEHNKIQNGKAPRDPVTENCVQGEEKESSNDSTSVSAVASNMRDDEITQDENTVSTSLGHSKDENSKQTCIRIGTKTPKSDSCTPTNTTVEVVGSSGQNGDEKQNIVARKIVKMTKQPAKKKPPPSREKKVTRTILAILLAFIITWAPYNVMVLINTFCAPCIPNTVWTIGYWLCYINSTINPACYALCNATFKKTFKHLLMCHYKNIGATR
Sequence of 5-hydroxytryptamine receptor 2B (Homo sapiens) (P41595 whole entry, looked up): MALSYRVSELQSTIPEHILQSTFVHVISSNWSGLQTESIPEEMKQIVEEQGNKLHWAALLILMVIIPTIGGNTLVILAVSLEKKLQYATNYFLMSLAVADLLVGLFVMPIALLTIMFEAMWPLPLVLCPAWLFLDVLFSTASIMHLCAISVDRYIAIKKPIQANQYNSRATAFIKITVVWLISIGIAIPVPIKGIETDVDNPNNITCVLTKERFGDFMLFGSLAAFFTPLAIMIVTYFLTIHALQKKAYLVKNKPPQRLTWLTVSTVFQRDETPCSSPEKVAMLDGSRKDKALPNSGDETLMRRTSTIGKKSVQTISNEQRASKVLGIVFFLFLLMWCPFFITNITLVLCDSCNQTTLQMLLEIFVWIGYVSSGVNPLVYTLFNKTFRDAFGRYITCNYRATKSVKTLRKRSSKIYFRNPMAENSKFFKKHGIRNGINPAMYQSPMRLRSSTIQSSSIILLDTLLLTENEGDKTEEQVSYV
Sequence of Beta-2 adrenergic receptor (Homo sapiens) (P07550 whole entry, looked up): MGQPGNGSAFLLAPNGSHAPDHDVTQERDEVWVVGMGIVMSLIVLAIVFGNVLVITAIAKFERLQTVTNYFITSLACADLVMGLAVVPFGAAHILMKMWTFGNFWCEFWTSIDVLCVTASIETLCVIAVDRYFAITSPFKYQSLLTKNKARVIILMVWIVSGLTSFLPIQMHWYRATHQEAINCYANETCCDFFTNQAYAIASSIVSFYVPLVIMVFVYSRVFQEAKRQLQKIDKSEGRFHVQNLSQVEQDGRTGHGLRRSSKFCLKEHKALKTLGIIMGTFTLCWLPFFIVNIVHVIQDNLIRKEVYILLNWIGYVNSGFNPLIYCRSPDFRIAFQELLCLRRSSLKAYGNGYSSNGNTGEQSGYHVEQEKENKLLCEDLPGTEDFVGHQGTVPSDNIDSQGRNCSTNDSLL
Sequence of D(1A) dopamine receptor (Homo sapiens) (P21728 whole entry, looked up): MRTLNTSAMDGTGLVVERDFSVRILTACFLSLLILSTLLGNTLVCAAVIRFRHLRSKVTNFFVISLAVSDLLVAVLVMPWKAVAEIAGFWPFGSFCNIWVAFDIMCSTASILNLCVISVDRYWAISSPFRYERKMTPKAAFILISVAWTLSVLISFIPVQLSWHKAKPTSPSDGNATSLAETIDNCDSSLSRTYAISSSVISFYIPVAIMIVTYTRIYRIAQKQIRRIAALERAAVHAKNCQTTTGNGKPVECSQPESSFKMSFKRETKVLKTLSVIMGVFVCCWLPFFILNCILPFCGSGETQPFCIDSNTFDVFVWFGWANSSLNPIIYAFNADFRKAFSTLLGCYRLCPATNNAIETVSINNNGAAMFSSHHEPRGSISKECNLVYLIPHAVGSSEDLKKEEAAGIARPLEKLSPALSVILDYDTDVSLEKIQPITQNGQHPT
Sequence of Cytochrome P450 1A2 (Homo sapiens) (P05177 whole entry, looked up): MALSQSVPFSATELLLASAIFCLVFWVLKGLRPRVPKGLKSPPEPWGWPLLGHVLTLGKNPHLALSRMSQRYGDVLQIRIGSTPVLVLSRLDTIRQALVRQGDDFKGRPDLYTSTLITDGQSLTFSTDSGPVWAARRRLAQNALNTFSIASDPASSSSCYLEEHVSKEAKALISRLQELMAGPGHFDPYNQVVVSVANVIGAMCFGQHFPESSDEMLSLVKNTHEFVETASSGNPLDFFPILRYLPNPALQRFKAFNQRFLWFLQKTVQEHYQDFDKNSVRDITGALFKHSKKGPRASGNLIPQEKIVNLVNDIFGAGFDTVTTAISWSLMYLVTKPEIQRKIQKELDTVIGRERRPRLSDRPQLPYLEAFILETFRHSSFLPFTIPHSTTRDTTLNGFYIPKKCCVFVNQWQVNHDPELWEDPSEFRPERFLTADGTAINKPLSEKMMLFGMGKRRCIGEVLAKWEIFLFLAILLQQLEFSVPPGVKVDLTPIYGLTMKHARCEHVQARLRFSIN
Sequence of Cytochrome P450 2D6 (Homo sapiens) (P10635 whole entry, looked up): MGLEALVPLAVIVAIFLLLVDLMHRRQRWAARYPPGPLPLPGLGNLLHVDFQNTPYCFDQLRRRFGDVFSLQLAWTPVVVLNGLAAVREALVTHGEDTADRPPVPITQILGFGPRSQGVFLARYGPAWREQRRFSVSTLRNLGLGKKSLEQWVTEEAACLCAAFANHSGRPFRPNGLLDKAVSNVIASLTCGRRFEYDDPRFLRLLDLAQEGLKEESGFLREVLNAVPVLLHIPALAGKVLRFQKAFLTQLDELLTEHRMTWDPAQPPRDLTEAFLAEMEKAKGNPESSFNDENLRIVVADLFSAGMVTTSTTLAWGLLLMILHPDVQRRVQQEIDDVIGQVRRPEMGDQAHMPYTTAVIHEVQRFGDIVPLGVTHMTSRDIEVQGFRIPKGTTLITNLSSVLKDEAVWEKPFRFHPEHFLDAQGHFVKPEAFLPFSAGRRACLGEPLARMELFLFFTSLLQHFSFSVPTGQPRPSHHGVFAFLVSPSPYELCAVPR
Sequence of Cytochrome P450 2C9 (Homo sapiens) (P11712 whole entry, looked up): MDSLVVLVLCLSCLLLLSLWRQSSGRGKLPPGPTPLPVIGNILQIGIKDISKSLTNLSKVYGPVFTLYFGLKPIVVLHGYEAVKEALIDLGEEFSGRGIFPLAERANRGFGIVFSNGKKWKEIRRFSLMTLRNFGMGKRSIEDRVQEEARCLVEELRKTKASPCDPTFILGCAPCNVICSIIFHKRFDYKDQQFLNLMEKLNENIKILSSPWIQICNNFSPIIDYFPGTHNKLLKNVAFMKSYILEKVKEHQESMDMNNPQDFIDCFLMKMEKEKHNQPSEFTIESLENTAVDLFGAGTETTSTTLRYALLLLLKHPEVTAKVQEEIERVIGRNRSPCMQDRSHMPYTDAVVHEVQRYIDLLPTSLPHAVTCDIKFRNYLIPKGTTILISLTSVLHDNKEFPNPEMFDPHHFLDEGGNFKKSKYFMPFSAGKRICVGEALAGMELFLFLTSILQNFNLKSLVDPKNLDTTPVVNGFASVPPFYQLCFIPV

Question: Which inhibition [1] does the source give for `COCCN=C1S/C(=C\c2cc(C)n(-c3ccc(F)cc3F)c2C)C(=O)N1C` here?
Answer: 6% (inactive)

Question: What about the inhibition [2] of the same compound?
Answer: 69%

Question: And the inhibition [3]?
Answer: 29% (inactive)

Question: And the inhibition [4]?
Answer: 59%

Question: And the inhibition [5]?
Answer: 29% (inactive)

Question: What about the inhibition [6] of the same compound?
Answer: 40% (inactive)

Question: What about the inhibition [7] of the same compound?
Answer: 64%

Question: And the inhibition [8]?
Answer: 42% (inactive)

Question: What about the inhibition [9] of the same compound?
Answer: 6% (inactive)

Question: And the inhibition [10]?
Answer: 39% (inactive)

Question: And the inhibition [11]?
Answer: 52%

Question: And the inhibition [12]?
Answer: 12% (inactive)

Question: What about the inhibition [13] of the same compound?
Answer: 71%

Question: And the inhibition [14]?
Answer: -53%

Question: What about the inhibition [15] of the same compound?
Answer: 66%

Question: And the inhibition [16]?
Answer: 11% (inactive)

Question: And the inhibition [17]?
Answer: 29% (inactive)

Question: And the inhibition [18]?
Answer: 65%

Question: And the inhibition [19]?
Answer: -24% (inactive)

Question: What about the inhibition [20] of the same compound?
Answer: 14% (inactive)

Question: What about the inhibition [21] of the same compound?
Answer: -28% (inactive)

Question: And the inhibition [22]?
Answer: 13% (inactive)

Question: What about the inhibition [23] of the same compound?
Answer: 40% (inactive)

Question: And the inhibition [24]?
Answer: 56%

Question: What about the inhibition [25] of the same compound?
Answer: 23% (inactive)

Question: And the inhibition [26]?
Answer: 2% (inactive)

Question: And the inhibition [27]?
Answer: 27% (inactive)

Question: What about the inhibition [28] of the same compound?
Answer: 8% (inactive)

Question: What about the inhibition [29] of the same compound?
Answer: 26% (inactive)

Question: What about the inhibition ([30]; Flunitrazepam) of the same compound?
Answer: -8% (inactive)

Question: And the inhibition ([30]; Muscimol)?
Answer: 3% (inactive)
